Results reported in patent US20150351390A1, “COMPOSITIONS AND METHODS FOR AUXIN-ANALOG CONJUGATION” (PIONEER HI-BRED INTERNATIONAL, INC., priority 2012, published 2015).

Tests used:
[1] = system: soybean seedlings; assay: Soybean seedling response to spot infiltrated auxins and conjugates; as to 1st trifoliate leaf curl: key: 0 = no phenotype; +/− = threshold; as to Chlorotic lesion @ app. Pnt: key: 0 = no phenotype; +/− = threshold; assay type: in vivo; set-up: 1st trifoliate leaf curl / Epinasty score: key: 0 = no phenotype; +/− = threshold; details: for 1st trifoliate leaf curl / Chlorotic lesion @ app. Pnt / Epinasty score: spot infiltration; for Plant response phenotype, soybean: 1, 2.5 and 5 mM, result in words
Procedure: Conjugate forms of auxinic compounds when applied through spot infiltration, a needleless method to introduce exogenous agents into plant cells. Initially, various concentrations of analytical grade (98%+pure) IAA, 2,4-D, and dicamba were prepared as solutions that were applied directly to uni-foliate leaves of 9 day old soybean seedlings by spot infiltration in order to determine the range of auxinic response and severity.
Spot infiltration comprises applying a compound to be tested in composition that is applied to the surface of a plant, for example, to a leaf or other plant structure. For example, a method for testing a plant response to one or more compounds using spot infiltration comprises a) providing a composition comprising one or more compounds to be tested in a container having at least an opening for the compound enter and/or exit, and one or more elements for moving the composition into or out of the container; b) contacting at least one opening of the container with the surface of a plant and moving the composition comprising one or more compounds to at least the surface of the plant. A container and elements for moving the composition may comprise a syringe body and plunger. Moving the composition to the plant surface comprises contacting the surface with pressure sufficient for the composition to enter the cells of the plant. In an aspect, spot filtration testing comprises measuring an effect of the composition on the contacted plant and comparing that measure or effect to a plant that is not contacted with the composition.
Plant response phenotypes were documented at one day post-spot infiltration and subsequently every other day, up to nine days post treatment. […] In the studies described herein below, 5 replicate treatments for each conjugate form were conducted, along with appropriate negative controls.
(§1) Examples 9 and 10 utilized a spot infiltration method for the delivery of an herbicide directly to leaves of a plant. The method generally allows for the directed delivery of a variety of agents to a localized area of a plant, e.g. localized region of leaves, for screening or assessment purposes, e.g. to quickly assess the response of a plant to the agent. As used in the foregoing examples, the spot infiltration method was used to introduce specific herbicides or specific conjugates of the herbicides to seedling plant leaves. Following introduction of the herbicide or the appropriate conjugate, plants were observed daily for nine days for characteristics of epinasty, trifoliate leaf curly, chlorosis, and new growth recovery.
(§2) Briefly, a solution of the desired agent is prepared of the desired agent, e.g. as described above in Example 10, solutions (5% EtOH) of 1, 2.5 and 5 mM IAA. The solution is then drawn into a 1 mL BD™ slip-tip syringe, bulk, non-sterile syringe (e.g. Becton, Dickinson and Company, Product No. 301025) with 100 μL markings. The desired volume is then applied to the leaf, e.g. as described in Examples 9 and 10, with the tip of the syring against the leaf and positive pressure applied to the syringe plunger. Sufficient pressure is applied in order to infuse the area beneath the syringe opening, but not so much pressure as to cause a visible-to-the-eye puncture or hole to form in the leaf. Some run-off of solution around the syringe opening is expected. In the foregoing examples, two spots were applied to each of two leaves per seedling for soybean plants. […] In soybean, both spots per leaf were at the distal portion of the leaf about 1-2 cm apart. When the method was applied to Arabidopsis, two developmentally intermediate aged leaves were chosen per plant, and one spot infiltration was carried out per leaf.

[2] = system: Arabidopsis ecotype Col-0 plant; assay: Arabidopsis response to spot infiltrated auxins and conjugates; assay type: in vivo, Arabidopsis thaliana; details: result in words
Procedure: The effect of auxin conjugates was assessed using Arabidoposis (Arabidopsis thialiana) ecotype Col-0 plant. Prior to studies utilizing the auxin conjugates, levels of analytical grade (98%+pure) IAA, 2,4-D and dicamba in solution were applied at various concentrations directly to developmentally similar leaves of 20-23 day old Arabidopsis seedlings by needleless syringe spot infiltration methodology, in order to determine range of auxinic response and severity. Phenotypes were documented relative to control at 1 day post-spot infiltration and subsequently every other day, up to nine days post treatment. Three concentrations were chosen based on reproducibility, and conjugated forms were then studied with 4 or more replicate treatments for each, along with appropriate negative controls (H2O and 10% EtOH).
as §1, §2
Generally, for Arabidopsis, the two leaves were chosen from opposite sides of rosette. In general, the spot infiltration method is carried out on younger plants in order to minimize experimental footprint and to maintain developmental uniformity. However, the method is not limited to use on young plants and can be easily applied to older plants as determined by the goals of a particular experiment.

[3] = LC-MS assay of GH3 conjugation of 2,4-D with Asp or Glu; assay type: biochemical; details: LC-MS; for Detected auxin conjugates: 2,4-D-Asp: 2,4-D with Asp; for Detected auxin conjugates: 2,4-D-Glu: 2,4-D with Glu
Method in brief: (§3)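 N-His-tagged GH3 homologs expressed in E. coli C41(DE3) and Ni-NTA purified (44 to 164 μg/mL) were incubated 3 hours at 30° C. in 20 mM Tris-HCl pH 8.0, 5 mM MgCl2, 1 mM DTT with 5 mM each of auxin, ATP and Asp or Glu. Conjugates were quantified by LC-MS against standards.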

[4] = LC-MS assay of GH3 conjugation of IAA with Asp or Glu; assay type: biochemical; details: LC-MS; for Detected auxin conjugates: IAA-Asp: IAA with Asp; for Detected auxin conjugates: IAA-Glu: IAA with Glu
Method in brief: as §3

[5] = LC-MS assay of GH3 conjugation of dicamba with Asp or Glu; assay type: biochemical; details: LC-MS; for Detected auxin conjugates: Dicamba-Asp: dicamba with Asp; for Detected auxin conjugates: Dicamba-Glu: dicamba with Glu
Method in brief: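 Dicamba–amino acid (Asp or Glu) conjugates formed by purified his-tagged GH3 enzymes were detected by LC-MS on an AB Sciex 4000 QTrap with Shimadzu Nexera UHPLC and a Phenomenex Luna 3 μm Phenyl-Hexyl column, after 20× dilution of the supernatant in water. Standards were used to quantify conjugates. Protein concentration was determined by Bradford assay.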

[6] = 1, 2.5 and 5 mM, all test levels

In the case of `O=C(O)Cc1c[nH]c2ccccc12` [IAA, indole-3-acetic acid], the “1st trifoliate leaf curl” value ([1]; 1.0 mM) is reported as 0, the “Chlorotic lesion @ app. Pnt” value ([1]; 1.0 mM) is reported as 0 and the “1st trifoliate leaf curl” value ([1]; 2.5 mM) is reported as 0. For the same molecule, the “Chlorotic lesion @ app. Pnt” value ([1]; 2.5 mM) was 0, the “1st trifoliate leaf curl” value ([1]; 5.0 mM) was 0 and the “Chlorotic lesion @ app. Pnt” value ([1]; 5.0 mM) was 0. The “Plant response phenotype, soybean” value [1] was “modest stem twisting and bending (epinasty)” and the “Phenotype, Arabidopsis” value ([2]; 5 mM (high dose), 1-2 days post treatment) was “modest petiole twisting (epinasty) and leaf curl”.

With `O=C(O)C[C@H](NC(=O)Cc1c[nH]c2ccccc12)C(=O)O` [IAA-Asp] the “1st trifoliate leaf curl” value ([1]; 1.0 mM) was 0, the “Chlorotic lesion @ app. Pnt” value ([1]; 1.0 mM) was 0 and the Epinasty score ([1]; 1.0 mM) was 0. For the same molecule, the “1st trifoliate leaf curl” value ([1]; 2.5 mM) was 0, the “Chlorotic lesion @ app. Pnt” value ([1]; 2.5 mM) was 0 and the Epinasty score ([1]; 2.5 mM) was 0. For the same molecule, the “1st trifoliate leaf curl” value ([1]; 5.0 mM) was 0, the “Chlorotic lesion @ app. Pnt” value ([1]; 5.0 mM) was 0 and the Epinasty score ([1]; 5.0 mM) was 0. For the same molecule, the “Plant response phenotype, soybean” value [1] was “No discernable phenotype” and the “Phenotype, Arabidopsis” value [2, 6] was “No discernable phenotype”.

In the case of `O=C(O)CC[C@H](NC(=O)Cc1c[nH]c2ccccc12)C(=O)O` [IAA-Glu], the “1st trifoliate leaf curl” value ([1]; 1.0 mM) is reported as 0, the “Chlorotic lesion @ app. Pnt” value ([1]; 1.0 mM) is reported as 0 and the Epinasty score ([1]; 1.0 mM) is reported as 0. The “1st trifoliate leaf curl” value ([1]; 2.5 mM) was 0, the “Chlorotic lesion @ app. Pnt” value ([1]; 2.5 mM) was 0 and the Epinasty score ([1]; 2.5 mM) was 0. For the same molecule, the “1st trifoliate leaf curl” value ([1]; 5.0 mM) was 0, the “Chlorotic lesion @ app. Pnt” value ([1]; 5.0 mM) was 0 and the Epinasty score ([1]; 5.0 mM) was 0. For the same molecule, the “Plant response phenotype, soybean” value [1] was “No discernable phenotype” and the “Phenotype, Arabidopsis” value [2, 6] was “No discernable phenotype”.

B1: AtGH3-11: GH3 protein, accession AAD23040 (protein, listed as Arabidopsis thaliana)
chain: MLEKVETFDMNRVIDEFDEMTRNAHQVQKQTLKEILLKNQSAIYLQNCGLNGNATDPEEAFKSMVPLVTDVELEPYIKRMVDGDTSPILTGHPVPAISLSSGTSQGRPKFIPFTDELMENTLQLFRTAFAFRNRDFPIDDNGKALQFIFSSKQYISTGGVPVGTATTNVYRNPNFKAGMKSITSPSCSPDEVIFSPDVHQALYCHLLSGILFRDQVQYVFAVFAHGLVHAFRTFEQVWEEIVTDIKDGVLSNRITVPSVRTAMSKLLTPNPELAETIRTKCMSLSNWYGLIPALFPNAKYVYGIMTGSMEPYVPKLRHYAGDLPLVSHDYGSSEGWIAANVTPRLSPEEATFAVIPNLGYFEFLPVSETGEGEEKPVGLTQVKIGEEYEVVITNYAGLYRYRLGDVVKVIGFYNNTPQLKFICRRNLILSINIDKNTERDLQLSVESAAKRLSEEKIEVIDFSSYIDVSTDPGHYAIFWEISGETNEDVLQDCCNCLDRAFIDAGYVSSRKCKTIGALELRVVAKGTFRKIQEHFLGLGSSAGQFKMPRCVKPSNAKVLQILCENVVSSYFSTAF
In the case of B1, the “Detected auxin conjugates: 2,4-D-Asp” value [3] is reported as “No”, the “Detected auxin conjugates: 2,4-D-Glu” value [3] is reported as “No” and the “Detected auxin conjugates: IAA-Asp” value [4] is reported as “No”. For the same molecule, the “Detected auxin conjugates: IAA-Glu” value [4] was “No”, the “Detected auxin conjugates: Dicamba-Asp” value [5] was “No” and the “Detected auxin conjugates: Dicamba-Glu” value [5] was “No”.

B2: OsGH3-12: GH3 protein, accession Q53P49 (protein, listed as Oryza sativa)
chain: MLEKEGKLIMSREDEEIMAWFERTTRDAADVQRETLRRILAENAGVEYLRELGLAGLTDAGSFRARVPVVTHADLDPYIQRVADGDASPVLTAKPVTAISLSSGTTQGKRKRLLFNDDLLRSSIRFFHASYAFTNRAFPVEDGRVLQFMYGSRHETTKGGLTATTVMTNLLRSEEFTASMAARSRPRLPSCSPSEVVFSPDFDESLYCHLLCGLLLAGEVRAVSASFAHSIVVALQALERVWRELCADIRRGAASPARVTTPAVRRAVAPILAAPNPALADALERRCAALGDWSGVIPALWPNARYVQATMTGSMEHYVKKLRHYAGGVPLVSGNYASSEGVIGINAEQHAPPESVVFTVLPDAAYFEFIPLKPPCTDAAADDDNPAAAGSSCYVDADDANPVGLTDVVVGEHYEVVMTTFTGLYRYRLGDVVKVAGFHHATPKLRFVCRRSLILSINVDKNSEHDLQLAVDSAAKILAGDGENHKQLEIADYTSHADTSSDPGHYVVFWELNGGGEEDGGGVLQRCCDEMDRAFGADAGYAQSRKTCAIGALELRVLRRGAFQEVLRHYVAGGSSAGQFKMPRCVAPSNAGVLRVLKDNTINIFFSTAYDYD
With B2 the “Detected auxin conjugates: 2,4-D-Asp” value [3] was “No”, the “Detected auxin conjugates: 2,4-D-Glu” value [3] was “No” and the “Detected auxin conjugates: IAA-Asp” value [4] was “No”. For the same molecule, the “Detected auxin conjugates: IAA-Glu” value [4] was “No”, the “Detected auxin conjugates: Dicamba-Asp” value [5] was “No” and the “Detected auxin conjugates: Dicamba-Glu” value [5] was “No”.

B3: OsGH3-3: GH3 protein, accession EEE54131 (protein, listed as Oryza sativa)
chain: MLEKKATRSTRVDGVSGEAVIEEFERVTRDAANVQRETLRRILAENGGVEYLRGLGLAGATDPATFRARVPLATHADLEPYIDRIADGDASPVLTAKPATSISLSSGTTQGKRKYLLFNEELVKSTMQIYRISYAFRNREFPVENGKALQFIYSSRETRTKGGLTATTATTNVYRSEEFKATMRDIQSQCCSPDEVIFGPDFAQSLYCHLLAGLLAAGDVQIVSATFAHSVVLAFQTFERAWEDLCADIRRGEVSPSRVTSPAVRRAMAALLAAPNPGLADEVARKCAALSNWYGVIPALWPNARYVYGIMTGSMEHYVKKLRHYAGGLPLVAAEYGASEGWVGANVEPGTPPERATFTVLPDIAYFEFIPLKPVAGDGGYAEAEPVGLTEVAAGELYEVVMTTFAGLYRYRLGDVVKVAGFYNATPKLKFVCRRNLMLSINIDKNSEQDLQLAVDAAARAVLAGEKLEVVDYTSHADVSSDPGHYVVFLELNAADPAAVDGDVMQACCDELDRAFADAGYVGSRKSGAIAPLELRVLQRGTFQKVLRHYLSLGAPVSQFKSPRCVSRSNSGVLQILAGCTVNVFFSSAYD
In the case of B3, the “Detected auxin conjugates: 2,4-D-Asp” value [3] is reported as “No”, the “Detected auxin conjugates: 2,4-D-Glu” value [3] is reported as “No” and the “Detected auxin conjugates: IAA-Asp” value [4] is reported as “Yes”. For the same molecule, the “Detected auxin conjugates: IAA-Glu” value [4] was “No”, the “Detected auxin conjugates: Dicamba-Asp” value [5] was “No” and the “Detected auxin conjugates: Dicamba-Glu” value [5] was “No”.
